In brackets after ≈: the same amount, converted by molar mass. Read-outs that look alike come from different tables or passages of the source.
Tests used:
HIV-1(IIIB) (WT) = assay: microbe, parasite or virus in culture; assay type: cell-based; settings: Human immunodeficiency virus 1, IIIB, CCRF-CEM
Method in brief: (§1)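 Infect CEM cells (250,000 cells per ml) with virus at 100 CCID50/ml; add infected suspension to wells holding diluted compound; incubate 4 days, 37° C.; examine for syncytia.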

HIV-1(IIIB) = assay: Knock-out concentrations: breakthrough of HIV-1(IIIB)-induced cytopathicity in CEM cell cultures; assay type: cell-based; settings: for activity at 0.1 µg/mL / activity at 0.5 µg/mL / activity at 2.5 µg/mL: Human immunodeficiency virus 1, IIIB, CCRF-CEM, read-out: HIV-1-induced cytopathicity in cell culture; for activity at 0.1 µg/mL: 0.1 μg/ml; for activity at 0.5 µg/mL: 0.5 μg/ml; for activity at 2.5 µg/mL: 2.5 μg/ml
Method in brief: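 CEM cells in RPMI 1640 with 10% FBS infected with HIV-1(IIIB) at ~1000× CCID50, subcultured every 3–4 days into fresh uninfected cells with drug held constant for 10 subcultivations (35 days), then ≥5 drug-free passages. Breakthrough scored by syncytium formation. Combinations used the two lowest single-drug starting concentrations.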

HIV-1 RT (WT) = HIV-1 RT (WT) (Human immunodeficiency virus type 1 group M subtype B, UniProt P03366); assay: biochemical
Method in brief: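 Recombinant HIV-1 RT incubated 30 min at 37° C with poly(C).oligo(dG) (0.1 mM) and [³H]dGTP (2.95 μM) in Tris pH 7.8 with 5 mM MgCl2, 150 mM KCl, DTT, glutathione, Triton X-100; 5-fold compound dilutions. Acid-insoluble radioactivity counted after TCA/pyrophosphate precipitation.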

HIV-1/Nev (106-Ala) = assay: Sensitivity of mutant HIV-1 strain in CEM cell cultures; assay type: cell-based; settings: Human immunodeficiency virus 1, CCRF-CEM; CEM cells, Table 1; read-out: 50% Effective Concentration
Method in brief: as §1

HIV-1/Pyr (181-Cys) = assay: as above; assay type: cell-based; settings: Human immunodeficiency virus 1, CCRF-CEM; CEM cells, Table 1; read-out: 50% Effective Concentration
Method in brief: as §1

HIV-1/IV(0.1) 103-Thr = assay: as above; assay type: cell-based; settings: Human immunodeficiency virus 1, CCRF-CEM; Table 5; read-out: EC50
Method in brief: as §1

HIV-1/II(0.1) 100-Ile = assay: as above; assay type: cell-based; settings: Human immunodeficiency virus 1, CCRF-CEM; Table 5; read-out: EC50
Method in brief: as §1

HIV-1/III(0.1) 103-Asn = assay: as above; assay type: cell-based; settings: Human immunodeficiency virus 1, CCRF-CEM; Table 5; read-out: EC50
Method in brief: as §1

[1] = system: HIV-1/TSAO-m^3 T (138-Lys); assay: as above; assay type: cell-based; settings: Human immunodeficiency virus 1, CCRF-CEM; CEM cells, Table 1; read-out: 50% Effective Concentration
Method in brief: as §1

HIV-1/V(0.5) 103-Asn = assay: as above; assay type: cell-based; settings: Human immunodeficiency virus 1, CCRF-CEM; Table 5; read-out: EC50
Method in brief: as §1

[2] = system: HIV-1/TIBO R82150 (100-Ile); assay: as above; assay type: cell-based; settings: Human immunodeficiency virus 1, CCRF-CEM; CEM cells, Table 1; read-out: 50% Effective Concentration
Method in brief: as §1

HIV-1/B 101Glu = assay: as above; assay type: cell-based; settings: Human immunodeficiency virus 1, CCRF-CEM; Table 5; read-out: EC50
Method in brief: as §1

[3] = system: HIV-1/TIBO R82913 (103-Asn); assay: as above; assay type: cell-based; settings: Human immunodeficiency virus 1, CCRF-CEM; CEM cells, Table 1; read-out: 50% Effective Concentration
Method in brief: as §1

HIV-1/I(0.1) 103-Asn = assay: as above; assay type: cell-based; settings: Human immunodeficiency virus 1, CCRF-CEM; Table 5; read-out: EC50
Method in brief: as §1

[4] = system: HIV-1/V(0.1) 101-Ile + 141-Glu; assay: as above; assay type: cell-based; settings: Human immunodeficiency virus 1, CCRF-CEM; Table 5; read-out: EC50
Method in brief: as §1

[5] = 936 h, day 39 post infection, compound absent from day 35
[6] = 1008 h, day 42 post infection, compound absent from day 35
[7] = 1104 h, day 46 post infection, compound absent from day 35
[8] = 1176 h, day 49 post infection, compound absent from day 35
[9] = 1272 h, day 53 post infection, compound absent from day 35

Cc1occc1C(=S)Nc1ccc(Cl)c(C=NOC(C)(C)C)c1 [Compound I]
EC50 (HIV-1(IIIB) (WT); CEM cells, Table 1, read-out: 50% Effective Concentration): 0.05 µg/mL (≈ 0.143 µM)
EC50 (HIV-1(IIIB) (WT); HIV-1 (III8), Table 5, read-out: EC50): 0.01 µg/mL (≈ 0.0285 µM)
IC50 (HIV-1(IIIB) (WT); range stated for Compounds I-V together, read-out: 50% inhibitory concentration, HIV-1(IIIB) replication in CEM cells): 0.004 to 0.05 µg/mL (≈ 0.0114 to 0.143 µM)
prevention of virus breakthrough, fold more efficient than BHAP (HIV-1(IIIB)): at least 5 fold
prevention of virus breakthrough, fold more efficient than nevirapine (HIV-1(IIIB)): ≥ 25 fold
activity at 0.1 µg/mL (HIV-1(IIIB); 96 h, day 4 post infection): 0%
activity at 0.5 µg/mL (HIV-1(IIIB); 96 h, day 4 post infection): 0%
activity at 2.5 µg/mL (HIV-1(IIIB); 96 h, day 4 post infection): 0%
activity at 0.1 µg/mL (HIV-1(IIIB); 192 h, day 8 post infection): 0%
activity at 0.5 µg/mL (HIV-1(IIIB); 192 h, day 8 post infection): 0%
activity at 2.5 µg/mL (HIV-1(IIIB); 192 h, day 8 post infection): 0%
activity at 0.1 µg/mL (HIV-1(IIIB); 264 h, day 11 post infection): 6.2%
activity at 0.5 µg/mL (HIV-1(IIIB); 264 h, day 11 post infection): 0%
activity at 2.5 µg/mL (HIV-1(IIIB); 264 h, day 11 post infection): 0%
activity at 0.1 µg/mL (HIV-1(IIIB); 336 h, day 14 post infection): 25%
activity at 0.5 µg/mL (HIV-1(IIIB); 336 h, day 14 post infection): 0%
activity at 2.5 µg/mL (HIV-1(IIIB); 336 h, day 14 post infection): 0%
activity at 0.1 µg/mL (HIV-1(IIIB); 408 h, day 17 post infection): 100%
activity at 0.5 µg/mL (HIV-1(IIIB); 408 h, day 17 post infection): 0%
activity at 2.5 µg/mL (HIV-1(IIIB); 408 h, day 17 post infection): 0%
activity at 0.1 µg/mL (HIV-1(IIIB); 504 h, day 21 post infection): 100%
activity at 0.5 µg/mL (HIV-1(IIIB); 504 h, day 21 post infection): 0%
activity at 2.5 µg/mL (HIV-1(IIIB); 504 h, day 21 post infection): 0%
activity at 0.1 µg/mL (HIV-1(IIIB); 600 h, day 25 post infection): 100%
activity at 0.5 µg/mL (HIV-1(IIIB); 600 h, day 25 post infection): 0%
activity at 2.5 µg/mL (HIV-1(IIIB); 600 h, day 25 post infection): 0%
activity at 0.1 µg/mL (HIV-1(IIIB); 672 h, day 28 post infection): 100%
activity at 0.5 µg/mL (HIV-1(IIIB); 672 h, day 28 post infection): 0%
activity at 2.5 µg/mL (HIV-1(IIIB); 672 h, day 28 post infection): 0%
activity at 0.1 µg/mL (HIV-1(IIIB); 768 h, day 32 post infection): 100%
activity at 0.5 µg/mL (HIV-1(IIIB); 768 h, day 32 post infection): 0%
activity at 2.5 µg/mL (HIV-1(IIIB); 768 h, day 32 post infection): 0%
activity at 0.1 µg/mL (HIV-1(IIIB); 840 h, day 35 post infection): 100%
activity at 0.5 µg/mL (HIV-1(IIIB); 840 h, day 35 post infection): 0%
activity at 2.5 µg/mL (HIV-1(IIIB); 840 h, day 35 post infection): 0%
activity at 0.1 µg/mL (HIV-1(IIIB); [5]): 100%
activity at 0.5 µg/mL (HIV-1(IIIB); [5]): 0%
activity at 2.5 µg/mL (HIV-1(IIIB); [5]): 0%
activity at 0.1 µg/mL (HIV-1(IIIB); [6]): 100%
activity at 0.5 µg/mL (HIV-1(IIIB); [6]): 0%
activity at 2.5 µg/mL (HIV-1(IIIB); [6]): 0%
activity at 0.1 µg/mL (HIV-1(IIIB); [7]): 100%
activity at 0.5 µg/mL (HIV-1(IIIB); [7]): 0%
activity at 2.5 µg/mL (HIV-1(IIIB); [7]): 0%
activity at 0.1 µg/mL (HIV-1(IIIB); [8]): 100%
activity at 0.5 µg/mL (HIV-1(IIIB); [8]): 0%
activity at 2.5 µg/mL (HIV-1(IIIB); [8]): 0%
activity at 0.1 µg/mL (HIV-1(IIIB); [9]): 100%
activity at 0.5 µg/mL (HIV-1(IIIB); [9]): 0%
activity at 2.5 µg/mL (HIV-1(IIIB); [9]): 0%
concentration at which virus emerged (virus breakthrough) (HIV-1(IIIB); tested at 0.1, 0.5 and 2.5 μg/ml, 35 days): 0.1 µg/mL
IC50 (HIV-1 RT (WT); range stated for the compounds together, poly(C).oligo(dG), 2.95 μM [2,8-3H]dGTP, read-out: IC50 on recombinant HIV-1 RT): 0.0513 to 0.219 µM
IC50 (HIV-1 RT (WT); substrate [2,8-3H]dGTP 2.95 μM, template poly(rC)oligo(dG), read-out: IC50, anti-HIV-1 RT (WT) activity (converted)): 0.202 µM
EC50 (HIV-1/Nev (106-Ala)): 0.13 µg/mL (≈ 0.371 µM)
EC50 (HIV-1/Pyr (181-Cys)): 0.075 µg/mL (≈ 0.214 µM)
EC50 (HIV-1/IV(0.1) 103-Thr): 0.6 µg/mL (≈ 1.71 µM)
EC50 (HIV-1/II(0.1) 100-Ile): 1.25 µg/mL (≈ 3.56 µM)
EC50 (HIV-1/III(0.1) 103-Asn): 0.3 µg/mL (≈ 0.855 µM)
EC50 [1]: 0.075 µg/mL (≈ 0.214 µM)
EC50 (HIV-1/V(0.5) 103-Asn): 0.73 µg/mL (≈ 2.08 µM)
EC50 [2]: 0.085 µg/mL (≈ 0.242 µM)
EC50 (HIV-1/B 101Glu): ≥ 1 µg/mL
EC50 [3]: ≥ 1 µg/mL
EC50 (HIV-1/I(0.1) 103-Asn): 0.23 µg/mL (≈ 0.656 µM)
EC50 [4]: 0.12 µg/mL (≈ 0.342 µM)
